# Test results as given in patent publication US9315458B2, “Nitrogen-containing heterocyclic compound” (Takeda Pharmaceutical Company Limited, priority 2014, dated 2016).
# Molecular target: T1, human M1 receptor (hCHRM1) (Homo sapiens, UniProt P11229)
# T1 construct: expressed in transfected cells
# T1 sequence (P11229 1-460): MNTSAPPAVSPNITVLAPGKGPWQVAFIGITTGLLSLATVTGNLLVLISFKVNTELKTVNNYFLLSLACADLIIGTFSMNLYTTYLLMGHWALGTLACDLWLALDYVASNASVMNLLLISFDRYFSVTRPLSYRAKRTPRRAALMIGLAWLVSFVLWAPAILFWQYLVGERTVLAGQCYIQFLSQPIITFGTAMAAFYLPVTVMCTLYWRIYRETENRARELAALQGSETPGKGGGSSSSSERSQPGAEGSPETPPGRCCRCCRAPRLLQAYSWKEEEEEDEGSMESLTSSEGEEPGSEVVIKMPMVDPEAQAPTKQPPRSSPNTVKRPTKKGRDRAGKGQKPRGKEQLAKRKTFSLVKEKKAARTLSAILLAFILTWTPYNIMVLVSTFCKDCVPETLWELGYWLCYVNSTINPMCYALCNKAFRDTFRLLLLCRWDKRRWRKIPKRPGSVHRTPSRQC
# Assay: Measurement of M1 receptor positive allosteric modulator (M1PAM) activity, calcium fluorescence (FLIPRtetra) with acetylcholine at EC20
# Format: cell-based
# Settings: for activity (%) at 10 μM: 10 μM test compound, 100% = acetylcholine 1 μM, 0% = DMSO, acetylcholine at EC20; for EC50: inflection point of concentration-dependent curve, CHO-K1 cells expressing hCHRM1, acetylcholine at EC20 (final 0.6-0.8 nM), read-out: IP value
# Method in brief: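 CHO-K1 cells stably expressing hCHRM1, Fluo-4 AM loaded; compound added with acetylcholine at EC20 (final 0.6-0.8 nM), fluorescence read 1 min. Activity normalised to 1 μM acetylcholine (100%) and DMSO (0%); IP values taken as inflection point of the concentration-response curve.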
SMILES,activity (%) at 10 μM [%],EC50 [nM]
"COc1ccc(Cc2cc3c(cc2C)CN([C@H]2COCC[C@@H]2O)C3=O)cc1 [Example 164, 2-[(3S,4S)-4-hydroxytetrahydro-2H-pyran-3-yl]-6-(4-methoxybenzyl)-5-methyl-2,3-dihydro-1H-isoindol-1-one]",102,62
"COc1c(Cc2ccc(-n3cccn3)cc2)cc2c(c1Cl)CN([C@H]1CCCC[C@@H]1O)C2=O (racemic) [Example 12, rac-4-chloro-2-(trans-2-hydroxycyclohexyl)-5-methoxy-6-(4-(1H-pyrazol-1-yl)benzyl)isoindolin-1-one]",91,7.7
"Cc1c(Cc2ccc(-c3ccn(C)n3)cc2)cc2c(c1C)CN([C@H]1CCC[C@@H]1O)C2=O [Example 13, 2-((1S,2S)-2-hydroxycyclopentyl)-4,5-dimethyl-6-(4-(1-methyl-1H-pyrazol-3-yl)benzyl)isoindolin-1-one]",104,7.9
"Cc1c(Cc2ccc(-n3cccn3)cc2)cc2c(c1C)CN(c1ncccc1F)C2=O [Example 153, 2-(3-fluoropyridin-2-yl)-4,5-dimethyl-6-(4-(1H-pyrazol-1-yl)benzyl)isoindolin-1-one]",92,57
"Cc1cc(-c2ccc(Cc3cc4c(cc3C)CN([C@H]3CCCC[C@@H]3O)C4=O)cc2)ccn1 (racemic) [Example 99, rac-2-(trans-2-hydroxycyclohexyl)-5-methyl-6-(4-(2-methylpyridin-4-yl)benzyl)isoindolin-1-one]",103,16
"CCc1cc2c(cc1Cc1ccc(-c3ccn(C)n3)cc1)C(=O)N([C@H]1COCC[C@@H]1O)C2 [Example 116, 5-ethyl-2-[(3S,4S)-4-hydroxytetrahydro-2H-pyran-3-yl]-6-[4-(1-methyl-1H-pyrazol-3-yl)benzyl]-2,3-dihydro-1H-isoindol-1-one]",111,6.1
"COc1ccc(Cc2cc3c(c(C)c2C)CN([C@H]2COCC[C@@H]2O)C3=O)c(F)c1 [Example 163, 6-(2-fluoro-4-methoxybenzyl)-2-[(3S,4S)-4-hydroxytetrahydro-2H-pyran-3-yl]-4,5-dimethyl-2,3-dihydro-1H-isoindol-1-one]",108,51
"Cc1c(Cc2ccc(-c3ccn(C)n3)cc2)cc2c(c1F)CN([C@H]1CCC[C@@H]1O)C2=O [Example 111, 4-fluoro-2-((1S,2S)-2-hydroxycyclopentyl)-5-methyl-6-(4-(1-methyl-1H-pyrazol-3-yl)benzyl)isoindolin-1-one]",103,26
"Cc1c(Cc2ccc(-n3cccn3)cc2F)cc2c(c1C)CN(C[C@@H]1CCCO1)C2=O [Example 115, 6-(2-fluoro-4-(1H-pyrazol-1-yl)benzyl)-4,5-dimethyl-2-((2S)-tetrahydrofuran-2-ylmethyl)isoindolin-2-one]",92,25
"Cc1cc2c(cc1Cc1ccc(-c3cnn(C)c3)cc1)C(=O)N(CC1CCCO1)C2 (centres unmarked) [Example 68, 5-methyl-6-(4-(1-methyl-1H-pyrazol-4-yl)benzyl)-2-(tetrahydrofuran-2-ylmethyl)isoindolin-1-one]",95,96
"Cc1cc2c(cc1Cc1ccc(-n3cccn3)cc1)C(=O)N(C(C)C(C)(C)O)C2 (centres unmarked) [Example 133, 2-(3-hydroxy-3-methylbutan-2-yl)-5-methyl-6-(4-(1H-pyrazol-1-yl)benzyl)isoindolin-1-one]",87,35
"COc1cc(Cc2cc3c(c(C)c2C)CN([C@H]2COCC[C@@H]2O)C3=O)ccc1F [Example 23, 1,5-anhydro-2,4-dideoxy-2-(6-(4-fluoro-3-methoxybenzyl)-4,5-dimethyl-1-oxo-1,3-dihydro-2H-isoindol-2-yl)-L-threo-pentitol]",100,46
"Cc1c(Cc2ccc(-n3cccn3)cc2)cc2c(c1C)CN(c1ncc(Cl)cc1F)C2=O [Example 162, 2-(5-chloro-3-fluoropyridin-2-yl)-4,5-dimethyl-6-(4-(1H-pyrazol-1-yl)benzyl)isoindolin-1-one]",95,66
"O=C1c2cc(Cc3ccc(-n4cccn4)cc3)c(C(F)(F)F)c(Cl)c2CN1[C@H]1CCC[C@@H]1O (racemic) [Example 88, rac-4-chloro-2-(trans-2-hydroxycyclopentyl)-6-(4-(1H-pyrazol-1-yl)benzyl)-5-(trifluoromethyl)isoindolin-1-one]",98,85
"Cc1c(Cc2ccc(-c3cn(C)nn3)cc2)cc2c(c1C)CN(C[C@@H]1CCCO1)C2=O [Example 14, 4,5-dimethyl-6-(4-(1-methyl-1H-1,2,3-triazol-4-yl)benzyl)-2-((2S)-tetrahydrofuran-2-ylmethyl)isoindolin-1-one]",94,1.2
"Cc1cc2c(cc1Cc1ccc(-c3cn(C)nn3)cc1)C(=O)N([C@H]1CCC[C@@H]1O)C2 (racemic) [Example 48, rac-2-(trans-2-hydroxycyclopentyl)-5-methyl-6-(4-(1-methyl-1H-1,2,3-triazol-4-yl)benzyl)isoindolin-1-one]",102,31
"Cc1nn(C)cc1-c1ccc(Cc2cc3c(c(C)c2C)CN([C@H]2CCC[C@@H]2O)C3=O)c(F)c1 (racemic) [Example 95, rac-6-(4-(1,3-dimethyl-1H-pyrazol-4-yl)-2-fluorobenzyl)-2-(trans-2-hydroxycyclopentyl)-4,5-dimethylisoindolin-1-one]",92,26
"Cc1cc2c(cc1Cc1ccc(-n3cccn3)cc1)C(=O)N([C@H]1COCC[C@@H]1O)C2 [Example 21, 1,5-anhydro-2,4-dideoxy-2-(5-methyl-1-oxo-6-(4-(1H-pyrazol-1-yl)benzyl)-1,3-dihydro-2H-isoindol-2-yl)-L-threo-pentitol]",106,6.2
"Cc1cc2c(cc1Cc1ccc(-n3cccn3)cc1)C(=O)N(c1c(F)cccc1C#N)C2 [Example 7, 3-fluoro-2-(5-methyl-1-oxo-6-(4-(1H-pyrazol-1-yl)benzyl)-1,3-dihydro-2H-isoindol-2-yl)benzonitrile]",107,180
"Cc1cc2c(cc1Cc1ccc(-c3ccn(C)n3)cc1)C(=O)N([C@H]1CCC[C@@H]1O)C2 (racemic) [Example 51, rac-2-(trans-2-hydroxycyclopentyl)-5-methyl-6-(4-(1-methyl-1H-pyrazol-3-yl)benzyl)isoindolin-1-one]",86,42
"Cc1c(Cc2ccc(-n3cccn3)cc2F)cc2c(c1C)CN([C@H]1CCC[C@@H]1O)C2=O [Example 16, 6-(2-fluoro-4-(1H-pyrazol-1-yl)benzyl)-2-((1S,2S)-2-hydroxycyclopentyl)-4,5-dimethylisoindolin-1-one]",94,12
"Cc1c(Cc2ccc(-n3cccn3)cc2)cc2c(c1C)CN([C@H]1CCC[C@@H]1O)C2=O (racemic) [Example 34, rac-2-(trans-2-hydroxycyclopentyl)-4,5-dimethyl-6-(4-(1H-pyrazol-1-yl)benzyl)isoindolin-1-one]",108,18
"Cc1cc(-c2ccc(Cc3cc4c(cc3C)CN([C@H]3CCCC[C@@H]3O)C4=O)cn2)ccn1 (racemic) [Example 6, rac-2-(trans-2-hydroxycyclohexyl)-5-methyl-6-((2′-methyl-2,4′-bipyridin-5-yl)methyl)isoindolin-1-one]",101,5.3
COc1ccc(Cc2cc3c(c(F)c2OC)CN([C@H]2COCC[C@@H]2O)C3=O)cc1 [Example 157],97,84
"Cc1c(Cc2ccc(-n3cccn3)cc2)cc2c(c1C)CN(CC(C)(C)O)C2=O [Example 15, 2-(2-hydroxy-2-methylpropyl)-4,5-dimethyl-6-(4-(1H-pyrazol-1-yl)benzyl)isoindolin-1-one]",103,11
"Cc1c(Cc2ccc(C#N)c(F)c2)cc2c(c1C)CN([C@H]1COCC[C@@H]1O)C2=O [Example 26, 1,5-anhydro-2-(6-(4-cyano-3-fluorobenzyl)-4,5-dimethyl-1-oxo-1,3-dihydro-2H-isoindol-2-yl)-2,4-dideoxy-L-threo-pentitol]",99,9.2
"Cc1cc2c(cc1Cc1ccc(-c3cn(C)nc3C)nc1)C(=O)N([C@H]1CCC[C@@H]1O)C2 (racemic) [Example 40, rac-6-((6-(1,3-dimethyl-1H-pyrazol-4-yl)pyridin-3-yl)methyl)-2-(trans-2-hydroxycyclopentyl)-5-methylisoindolin-1-one]",97,37
"Cc1c(Cc2ccc(-n3cccn3)cc2)cc2c(c1Cl)CN([C@H]1CCC[C@@H]1O)C2=O (racemic) [Example 102, rac-4-chloro-2-(trans-2-hydroxycyclopentyl)-5-methyl-6-(4-(1H-pyrazol-1-yl)benzyl)isoindolin-1-one]",91,13
